From patent publication US9988430B2, “Stable GLP-1 based GLP-1/glucagon receptor co-agonists” (Novo Nordisk A/S, priority 2014, dated 2018) come the findings set out here.

One may read the IC50 as the concentration that inhibits the measured activity by half. What is called EC50 is the concentration giving half of the maximal effect.

*1 amine or outer side, *2 acyl side, *3 side chain or, on linkers, in order; H or OH if unused. Where a SMILES comes first, the peptide text is derived from it. Bridges are numbered along the chain shown (N, C = ends). Roman numbers before positions name the chains, in order. [ ]: non-standard residue; d: D form. The star is where a group is joined. C20 diacid = O=C(O)CCCCCCCCCCCCCCCCCCC(=O)*; C18 diacid = O=C(O)CCCCCCCCCCCCCCCCC(=O)*; γGlu = O=C(O)[C@H](CCC(=O)[*:2])N[*:1]; Desaminohistidyl = O=C(CCc1c[nH]cn1)*; Ac4c = NC1(C(=O)O)CCC1; Aib = CC(C)(N)C(=O)O

Series [1] has as its target T1, human GLP-1 receptor (Homo sapiens, UniProt P43220).
T1 construct: expressed in transfected cells; host or cells: membranes of BHK cells, parent line BHKTS13, clone FCW467-12A
Kind of series: Assay (II)(a): GLP-1 receptor binding, [125I]GLP-1 displacement, SPA on BHK membranes. The settings on record: displacement of [125I]GLP-1, membranes with human GLP-1 receptor; read-out: IC50 GLP-1R. In outline: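 Membranes from BHK cells expressing human GLP-1 receptor with WGA SPA beads, [125I]GLP-1(7-36)NH2 (480 pM added solution) and compound in HEPES pH 7.4 buffer with EGTA, MgCl2, Tween 20. Incubated 2 h at 30° C; SPA counts fitted by non-linear regression to IC50 in nM.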
For orientation: Displacement assays read how much labelled ligand stays bound in the presence of the test substance.

Series [2] in a line: Assay (V): chemical stability assessment by RP-UPLC. It counts as physicochemical. The settings on record: 14 days at 37° C. in phosphate buffer (pH 7.3). As to the method: Assay (V): Chemical Stability Assessment
The purpose of this assay is to assess the chemical stability of the GLP-1 derivatives of the present invention in aqueous solutions.
Chemical stability of GLP-1 derivatives may be investigated by RP-UPLC separation and UV detection. Lyophilized samples are dissolved in a 8 mM Phosphate buffer pH 8.6, followed by adjustment to pH 7.3 using HCl to a final concentration of 333 μM. Samples are incubated for 14 days at 5° C. and 37° C. followed by RP-UPLC analysis. Purity is defined as the area percentage of the main peak in relation to the total area of all integrated peaks in each chromatogram. Purity loss, also referred to herein as chemical degradation, after 14 days at 37° C. is determined as the difference in purity between the samples incubated at 5° C. and 37° C., divided by the purity of the sample after incubation for 14 days at 5° C.
RP-UPLC analysis is performed using a Waters BEH130 2.1 mm×150 mm, 1.7 μm column operated at 50° C. and a flow rate of 0.4 mL/min using a mobile phase system consisting of A: 0.05% TFA in MQ-water, and B: 0.05% TFA in Acetonitrile. UV-detection is performed at 215 nm. The typical gradient profile used for most of the samples is shown below.
For some individual derivatives eluting at substantially different retention times compared with the majority of derivatives, some adjustments to the gradient profile are made to better enable purity assessment comparison across samples.

In series [3] the target is T1, human GLP-1 receptor. Description: Assay (I)(a): GLP-1 receptor potency, CRE luciferase reporter gene assay in BHK cells. It counts as cell-based. The settings on record: BHK cells expressing human GLP-1 receptor, read-out: EC50 GLP-1R. How it is done:
Assay (I): GLP-1 and Glucagon Receptor Potency The purpose of this example was to test the activity or potency, of the GLP-1 derivatives of the invention, in vitro. The in vitro potency is the measure of human GLP-1 receptor (GLP-1R) or glucagon receptor (glucagonR) activation, respectively, in a whole cell assay. In vitro potency was determined by measuring the cellular response of human GLP-1 or glucagon receptor activation, respectively, in a reporter gene assay. The assay was performed in a BHK cell line that stably expresses either the human GLP-1 receptor or the human glucagon receptor and comprises the DNA for the cAMP response element (CRE) coupled to a promoter and the gene for firefly luciferase (CRE luciferase). […] When assay incubation was completed, the luciferase substrate (luciferin) was added and the enzyme converted luciferin to oxyluciferin and produces bioluminescence. The luminescence was measured as the readout for the assay. (a) GLP-1 Receptor Activation The cells used in this assay (clone FCW467-12A/KZ10-1) were BHK cells with BHKTS13 as a parent cell line. The cells were derived from a clone (FCW467-12A) that expresses the human GLP-1 receptor and were established by further transfection with CRE luciferase to obtain the current clone. The cells were cultured at 5% CO2 in DMEM medium with 10% FBS, 1×GlutaMAX, 1 mg/ml G418, 240 nM MTX (methotrexate) and 1% pen/strep (penicillin/streptomycin). They were aliquoted and stored in liquid nitrogen. Before each assay, an aliquot was taken up and washed three times in PBS before being suspended at the desired concentration in assay medium. For 96-well plates the suspension was made to give a final concentration of 5×10EE3 cells/well. The following chemicals were used in the assay: Pluronic F-68 (10%) (Gibco 2404), Ovalbumin (Sigma A5503), DMEM w/o phenol red (Gibco 11880-028), 1 M Hepes (Gibco 15630), Glutamax 100× (Gibco 35050) and steadylite plus (PerkinElmer 6016757). Assay Medium consisted of DMEM w/o phenol red, 10 mM Hepes, 1×GlutaMAX, 2% Ovalbumin and 0.2% Pluronic F-68. Cell stocks were thawed in a 37° C. water bath. Cells were washed three times in PBS. The cells were counted and adjusted to 5×10EE3 cells/50 μl (1×10EE5 cells/ml) in Assay Medium. A 50 μl aliquot of cells was transferred to each well in the assay plate. Stocks of the test compounds and reference compounds were diluted to a concentration of […] in Assay Medium. Compounds were diluted 10-fold to give the following concentrations: 2×10EE-6 M, 2×10EE-7 M, 2×10EE-8 M; 2×10EE-9 M, 2×10EE-10 M, 2×10EE-11 M, 2×10EE-12 M and 2×10EE-13 M. For each compound a blank assay medium control was also included. A 50 μl aliquot of compound or blank was transferred from the dilution plate to the assay plate. Compounds were tested at the following final concentrations: 1×10EE-6 M, 1×10EE-7 M, 1×10EE-8 M; 1×10EE-9 M, 1×10EE-10 M, 1×10EE-11 M and 1×10EE-12 M and 1×10EE-13 M. The assay plate was incubated for 3 h in a 5% CO2 incubator at 37° C. The assay plate was removed from the incubator and allowed to stand at room temperature for 15 min. A 100 μl aliquot of steadylite plus reagent was added to each well of the assay plate (reagent is light sensitive). Each assay plate was covered with aluminum foil to protect it from light and shaken for 30 min at room temperature. Each assay plate was read in a Perkin Elmer TopCount NXT instrument. The data from the TopCount instrument was transferred to GraphPad Prism software. The software performed a non-linear regression (log(agonist) vs response-Variable slope (four parameter)). EC50 values were calculated by the software and reported in pM.
Background: Reporter assays use an easily measured gene product as a stand-in for the process of interest.

T1 sequence (P43220 24-463): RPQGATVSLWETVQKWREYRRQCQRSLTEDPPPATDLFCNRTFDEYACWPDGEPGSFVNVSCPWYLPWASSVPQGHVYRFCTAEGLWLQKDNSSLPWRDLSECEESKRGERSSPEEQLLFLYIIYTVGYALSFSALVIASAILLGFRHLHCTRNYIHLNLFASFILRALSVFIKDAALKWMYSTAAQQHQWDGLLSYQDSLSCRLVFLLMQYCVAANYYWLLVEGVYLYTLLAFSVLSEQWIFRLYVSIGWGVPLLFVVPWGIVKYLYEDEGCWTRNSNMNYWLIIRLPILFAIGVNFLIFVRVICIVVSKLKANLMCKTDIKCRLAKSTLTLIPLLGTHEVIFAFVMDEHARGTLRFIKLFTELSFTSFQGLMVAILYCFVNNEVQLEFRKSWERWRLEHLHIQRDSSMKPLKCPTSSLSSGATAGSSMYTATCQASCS

`CC[C@H](C)[C@H](NC(=O)[C@H](Cc1ccccc1)NC(=O)[C@H](CCC(=O)O)NC(=O)[C@H](CCCNC(=N)N)NC(=O)[C@H](C)NC(=O)[C@H](C)NC(=O)[C@H](CCC(N)=O)NC(=O)[C@H](CCC(=O)O)NC(=O)[C@H](CCC(=O)O)NC(=O)[C@H](CC(C)C)NC(=O)[C@H](Cc1ccc(O)cc1)NC(=O)[C@H](CCCCN)NC(=O)[C@H](CO)NC(=O)[C@H](Cc1ccc(O)cc1)NC(=O)[C@H](CC(=O)O)NC(=O)[C@H](CO)NC(=O)[C@@H](NC(=O)[C@H](Cc1ccccc1)NC(=O)[C@@H](NC(=O)CNC(=O)[C@H](Cc1c[nH]cn1)NC(=O)C1(NC(=O)CCc2c[nH]cn2)CCC1)[C@@H](C)O)[C@@H](C)O)C(=O)N[C@@H](C)C(=O)N[C@@H](Cc1c[nH]c2ccccc12)C(=O)N[C@@H](CC(C)C)C(=O)N[C@@H](CC(C)C)C(=O)N[C@@H](CCCCN)C(=O)N[C@@H](CCCCNC(=O)CNC(=O)[C@H](CO)NC(=O)[C@H](CCC(=O)O)NC(=O)CNC(=O)[C@H](CO)NC(=O)CC[C@H](NC(=O)CC[C@H](NC(=O)CCCCCCCCCCCCCCCCC(=O)O)C(=O)O)C(=O)O)C(N)=O` [Example 1, N^ε35-[2-[[(2S)-2-[[(2S)-4-carboxy-2-[[2-[[(2S)-2-[[(4S)-4-carboxy-4-[[(4S)-4-carboxy-4-(17-carboxyheptadecanoylamino)butanoyl]amino]butanoyl]amino]-3-hydroxypropanoyl]amino]acetyl]amino]butanoyl]amino]-3-hydroxypropanoyl]amino]acetyl]-[Imp7,Acb8,His9,Tyr16,Lys18,Glu22,Arg26,Leu33,Lys35]-GLP-1-(7-35)-peptide amide] (I: Desaminohistidyl-[Ac4c]HGTFTSDYSKYLEEQAAREFIAWLLKK-NH2 / II: {C18 diacid-γGlu-γGlu}-SGESG; amide I:28-II:C): the IC50 at human GLP-1 receptor [1] came to 0.7 nM. For the same molecule, the “Chemical stability: Chemical degradation over 14 days at 37° C.” value in series [2] was determined as 1.5%.

On to `CC[C@H](C)[C@H](NC(=O)[C@H](Cc1ccccc1)NC(=O)[C@H](CCC(=O)O)NC(=O)[C@H](CCCNC(=N)N)NC(=O)[C@H](C)NC(=O)[C@H](C)NC(=O)[C@H](CCC(N)=O)NC(=O)[C@H](CCC(=O)O)NC(=O)[C@H](CCC(=O)O)NC(=O)[C@H](CC(C)C)NC(=O)[C@H](Cc1ccc(O)cc1)NC(=O)[C@H](CCCCN)NC(=O)[C@H](CO)NC(=O)[C@@H](NC(=O)[C@H](CC(=O)O)NC(=O)[C@H](CO)NC(=O)[C@@H](NC(=O)[C@H](Cc1ccccc1)NC(=O)[C@@H](NC(=O)CNC(=O)[C@H](Cc1c[nH]cn1)NC(=O)C(C)(C)NC(=O)CCc1c[nH]cn1)[C@@H](C)O)[C@@H](C)O)C(C)C)C(=O)N[C@@H](C)C(=O)N[C@@H](Cc1c[nH]c2ccccc12)C(=O)N[C@@H](CC(C)C)C(=O)N[C@@H](CC(C)C)C(=O)N[C@@H](CCCCNC(=O)CNC(=O)[C@H](CO)NC(=O)[C@H](CCC(=O)O)NC(=O)CNC(=O)[C@H](CO)NC(=O)CC[C@H](NC(=O)CC[C@H](NC(=O)CCCCCCCCCCCCCCCCCCC(=O)O)C(=O)O)C(=O)O)C(=O)N[C@H](C(N)=O)[C@@H](C)O` [Example 30, N^ε34-[2-[[(2S)-2-[[(2S)-4-carboxy-2-[[2-[[(2S)-2-[[(4S)-4-carboxy-4-[[(4S)-4-carboxy-4-(19-carboxynonadecanoylamino)butanoyl]amino]butanoyl]amino]-3-hydroxypropanoyl]amino]acetyl]amino]butanoyl]amino]-3-hydroxypropanoyl]amino]acetyl]-[Imp7,Aib8,His9,Lys18,Glu22,Arg26,Leu33,Thr35]-GLP-1-(7-35)-peptide amide] (I: Desaminohistidyl-[Aib]HGTFTSDVSKYLEEQAAREFIAWLLKT-NH2 / II: {C20 diacid-γGlu-γGlu}-SGESG; amide I:27-II:C), for which, at human GLP-1 receptor [3], the EC50 is 0.005 nM. The IC50 at human GLP-1 receptor [1] worked out at 0.4 nM.

Take `CC[C@H](C)[C@H](NC(=O)[C@H](Cc1ccccc1)NC(=O)[C@H](CCC(=O)O)NC(=O)[C@H](CCCNC(=N)N)NC(=O)[C@H](C)NC(=O)[C@H](C)NC(=O)[C@H](CCC(N)=O)NC(=O)[C@H](CCC(=O)O)NC(=O)[C@H](CCC(=O)O)NC(=O)[C@H](CC(C)C)NC(=O)[C@H](Cc1ccc(O)cc1)NC(=O)[C@H](CCCNC(=N)N)NC(=O)[C@H](CO)NC(=O)[C@@H](NC(=O)[C@H](CC(=O)O)NC(=O)[C@H](CO)NC(=O)[C@@H](NC(=O)[C@H](Cc1ccccc1)NC(=O)[C@@H](NC(=O)CNC(=O)[C@H](Cc1c[nH]cn1)NC(=O)CNC(=O)CCc1c[nH]cn1)[C@@H](C)O)[C@@H](C)O)C(C)C)C(=O)N[C@@H](C)C(=O)N[C@@H](Cc1c[nH]c2ccccc12)C(=O)N[C@@H](CC(C)C)C(=O)N[C@@H](CC(C)C)C(=O)N[C@@H](CCCCNC(=O)CNC(=O)[C@H](CO)NC(=O)[C@H](CCC(=O)O)NC(=O)CNC(=O)[C@H](CO)NC(=O)CC[C@H](NC(=O)CC[C@H](NC(=O)CCCCCCCCCCCCCCCCC(=O)O)C(=O)O)C(=O)O)C(=O)N[C@H](C(N)=O)[C@@H](C)O` [Example 37, N^ε34-[2-[[(2S)-2-[[(2S)-4-carboxy-2-[[2-[[(2S)-2-[[(4S)-4-carboxy-4-[[(4S)-4-carboxy-4-(17-carboxyheptadecanoylamino)butanoyl]amino]butanoyl]amino]-3-hydroxypropanoyl]amino]acetyl]amino]butanoyl]amino]-3-hydroxypropanoyl]amino]acetyl]-[Imp7,Gly8,His9,Arg18,Glu22,Arg26,Leu33,Thr35]-GLP-1-(7-35)-peptide amide] (I: Desaminohistidyl-GHGTFTSDVSRYLEEQAAREFIAWLLKT-NH2 / II: {C18 diacid-γGlu-γGlu}-SGESG; amide I:27-II:C): at human GLP-1 receptor [3], the EC50 is 0.008 nM. Also, the IC50 at human GLP-1 receptor [1] came out at 3.2 nM.
